Experimental data published in paper PMC7044277 (Nature Communications, 2020).
Where “and” joins values, the source holds several entries; their conditions need not be identical. Identical values can stand only once.

Key:
Test in all cases: β-arrestin2 recruitment (Tango)
Type in all cases: cell-based
5HT2A = 5HT2A (Homo sapiens, UniProt P28223); details: single replicate values
DRD4 (D4.4 variant) = target: T1, DRD4 (D4.4 variant) (Homo sapiens, UniProt P21917); details: for Fig_S10c concentration-response source data, compound alone (replicates): agonist mode
T1 sequence (P21917 1-419): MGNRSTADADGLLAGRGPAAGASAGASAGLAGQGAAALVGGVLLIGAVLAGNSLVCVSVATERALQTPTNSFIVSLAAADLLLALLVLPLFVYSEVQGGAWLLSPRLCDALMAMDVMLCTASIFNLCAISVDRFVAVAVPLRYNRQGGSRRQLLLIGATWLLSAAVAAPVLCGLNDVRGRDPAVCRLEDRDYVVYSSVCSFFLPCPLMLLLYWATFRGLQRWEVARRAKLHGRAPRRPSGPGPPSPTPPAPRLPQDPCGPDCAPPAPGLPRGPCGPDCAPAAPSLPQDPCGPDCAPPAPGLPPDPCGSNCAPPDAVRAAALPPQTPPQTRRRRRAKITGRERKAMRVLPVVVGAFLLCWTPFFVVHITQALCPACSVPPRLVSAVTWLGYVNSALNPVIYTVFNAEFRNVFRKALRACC

5HT6 = target: T2, 5HT6 (Homo sapiens, UniProt P50406); details: Fig_S10p, agonist mode
T2 construct: expressed in transfected cells; host or cells: HTLA cells expressing TEV-fused β-arrestin2
T2 sequence (P50406 whole entry, the tested form may be a part): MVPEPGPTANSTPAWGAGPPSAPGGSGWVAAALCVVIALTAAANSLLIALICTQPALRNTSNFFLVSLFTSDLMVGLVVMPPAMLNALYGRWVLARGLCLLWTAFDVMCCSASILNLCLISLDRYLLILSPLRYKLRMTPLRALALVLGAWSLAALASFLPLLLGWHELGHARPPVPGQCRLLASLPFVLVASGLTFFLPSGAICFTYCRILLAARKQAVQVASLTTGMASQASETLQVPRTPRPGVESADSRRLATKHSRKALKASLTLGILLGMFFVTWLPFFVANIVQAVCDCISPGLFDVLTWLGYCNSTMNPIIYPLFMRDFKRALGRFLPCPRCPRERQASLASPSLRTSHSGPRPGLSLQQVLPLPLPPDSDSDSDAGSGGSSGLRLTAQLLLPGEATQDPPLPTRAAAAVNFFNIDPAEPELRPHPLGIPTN

Chain of 5HT2A (P28223 whole entry): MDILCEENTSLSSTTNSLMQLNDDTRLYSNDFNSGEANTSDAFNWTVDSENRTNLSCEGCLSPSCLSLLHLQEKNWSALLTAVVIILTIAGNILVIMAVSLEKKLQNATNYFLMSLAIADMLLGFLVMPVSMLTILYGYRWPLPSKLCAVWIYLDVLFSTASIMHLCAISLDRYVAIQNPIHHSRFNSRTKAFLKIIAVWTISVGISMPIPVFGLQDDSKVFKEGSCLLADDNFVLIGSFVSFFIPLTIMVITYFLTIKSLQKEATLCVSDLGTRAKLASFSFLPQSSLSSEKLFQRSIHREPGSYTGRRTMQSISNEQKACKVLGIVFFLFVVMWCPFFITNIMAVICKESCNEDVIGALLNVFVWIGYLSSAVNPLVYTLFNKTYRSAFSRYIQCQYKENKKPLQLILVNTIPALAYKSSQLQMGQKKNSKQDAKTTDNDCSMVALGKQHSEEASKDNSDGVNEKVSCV

## CCOc1cccc2cc([C@@H](C)NCC3(O)CCCCC3)oc12 [O4RE6]
5HT2A; Log[Drug] -8
  Fig_S10k dose-response, drug alone (agonist mode), β-arrestin2 recruitment: 1.5774 and 2.458 and -0.4916 and -0.4094 and -2.089 and 0.5329 and 11.4772 and 3.9492 and 2.4436
5HT2A; Log[Drug] -8.52
  Fig_S10k dose-response, drug alone (agonist mode), β-arrestin2 recruitment: -0.8437 and 0.3668 and 0.9905 and -1.355 and 3.003 and -0.7312 and 3.002 and 2.824 and 3.026
5HT2A; Log[Drug] -9
  Fig_S10k dose-response, drug alone (agonist mode), β-arrestin2 recruitment: 16.8085 and 6.2069 and -0.2128 and 11.6986 and 0.5297 and -1.349 and 1.8808 and 2.833 and 2.6312
5HT2A; Log[Drug] -9.52
  Fig_S10k dose-response, drug alone (agonist mode), β-arrestin2 recruitment: -0.5503 and 0.3742 (2×) and -0.2437 and 18.2855 and 12.0983 and 1.862 and 3.213 and 3.608
5HT2A; Log[Drug] -10
  Fig_S10k dose-response, drug alone (agonist mode), β-arrestin2 recruitment: 0.4035 and 2.4358 and 3.331 and 0.1365 and -1.683 and 9.281 and 2.751 and 3.406 and 1.477
5HT2A; Log[Drug] -10.52
  Fig_S10k dose-response, drug alone (agonist mode), β-arrestin2 recruitment: -0.4916 and 0.9758 and -0.7997 and 1.29 and 4.65 and 10.4637 and 6.306 and 3.973 and 2.054
5HT2A; Log[Drug] -11
  Fig_S10k dose-response, drug alone (agonist mode), β-arrestin2 recruitment: 2.45 and 2.135 and 3.331 and -1.706 and -2.372 and 0.351 and 0.3319 and 2.848 and 1.106
5HT2A; Log[Drug] -11.52
  Fig_S10k dose-response, drug alone (agonist mode), β-arrestin2 recruitment: 0.3302 and 0.9611 and 1.255 and 6.574 and 5.31 and 2.18 and 0.7408 and 1.698 and 1.477
5HT2A; Log[Drug] -12
  Fig_S10k dose-response, drug alone (agonist mode), β-arrestin2 recruitment: 0.3962 and 4.798 and 3.859 and -0.7864 and -1.57 and 2.356 and 1.337 and 0.7456 and 3.045
DRD4 (D4.4 variant); DRD4, Tango, read-out: EC50 ± SEM
  EC50: > 10 µM
DRD4 (D4.4 variant); Log[Drug] -5
  β-arrestin2 recruitment response at DRD4 (source data, replicate values): 6.217 and 2.763 and 2.001 and 1.287 and 1.775 and 4.058 and 4.003 and 0.06427 and 0.2106
  Fig_S10c concentration-response source data, compound alone (replicates): 5.394 and 8.31 and 11.4353 and 9.275 and 2.582 and 4.074 and 8.729 and 7.933 and 14.0378
DRD4 (D4.4 variant); Log[Drug] -5.52
  β-arrestin2 recruitment response at DRD4 (source data, replicate values): 2.6039 and -1.106 and -1.946 and -0.4701 and 1.404 and 2.39 and 0.8979 and 0.0552 and 0.08381
  Fig_S10c concentration-response source data, compound alone (replicates): 1.202 and 2.837 and 2.321 and 1.635 and 2.366 and 3.787 and 1.627 and 3.207 and 0.6688
DRD4 (D4.4 variant); Log[Drug] -6
  β-arrestin2 recruitment response at DRD4 (source data, replicate values): 3.584 and -1.188 and -0.584 and -0.6588 and 0.8796 and 1.83 and 0.7762 and 0.03516 and 0.171
  Fig_S10c concentration-response source data, compound alone (replicates): 2.086 and 2.7849 and 3.425 and -0.09437 and 0.02849 and 3.5238 and 0.3966 and 3.288 and 1.462
DRD4 (D4.4 variant); Log[Drug] -6.52
  β-arrestin2 recruitment response at DRD4 (source data, replicate values): 1.007 and 4.325 and 1.323 and -0.8974 and 1.527 and -0.05366 and -0.1047 and 0.03541 and 0.08444
  Fig_S10c concentration-response source data, compound alone (replicates): 1.505 and 1.478 and 5.593 and -1.936 and -0.8155 and 0.5983 and 2.508 and 1.037 and -0.4712
DRD4 (D4.4 variant); Log[Drug] -7
  β-arrestin2 recruitment response at DRD4 (source data, replicate values): 1.079 and -1.731 and -1.221 and -1.369 and 0.6898 and 0.678 and 1.948 and 0.1059 and 0.1355
  Fig_S10c concentration-response source data, compound alone (replicates): 2.288 and 4.238 and 0.7634 and -1.02 and 3.3404 and -2.026 and 1.575 and 0.945 and -0.6741
DRD4 (D4.4 variant); Log[Drug] -7.52
  β-arrestin2 recruitment response at DRD4 (source data, replicate values): 0.371 and -1.716 and -1.784 and -0.5805 and -0.6243 and 1.534 and -0.4267 and 0.02533 and 0.04436
DRD4 (D4.4 variant); Log[Drug] -8
  β-arrestin2 recruitment response at DRD4 (source data, replicate values): 0.8799 and -0.7087 and -1.711 and -1.318 and -0.195 and -0.3626 and 1.952 and 0.0707 and 0.1967
DRD4 (D4.4 variant); Log[Drug] -8.52
  β-arrestin2 recruitment response at DRD4 (source data, replicate values): 1.656 and -1.517 and -1.8 and 0.5698 and 0.5353 and -0.6701 and 0.003927 and 0.031 and 0.0242
DRD4 (D4.4 variant); Log[Drug] -9
  β-arrestin2 recruitment response at DRD4 (source data, replicate values): 0.08244 and -0.5912 and 1.416 and -2.021 and 1.101 and 0.6872 and 0.9463 and -0.03415 and 0.05621
DRD4 (D4.4 variant); Log[Drug] -10.52
  β-arrestin2 recruitment response at DRD4 (source data, replicate values): 2.403
DRD4 (D4.4 variant); Log[Drug] -11
  β-arrestin2 recruitment response at DRD4 (source data, replicate values): 4.161 and -1.784 and -1.43 and 0.349 and 0.8023 and -0.5301 and 2.686 and -0.07952 and -0.04373
DRD4 (D4.4 variant); Log[Drug] -11.52
  β-arrestin2 recruitment response at DRD4 (source data, replicate values): 0.6452 and -1.9266 and -1.439 and -0.7995 and -0.6204 and 1.59 and -0.483 and -0.008444 and -0.04903
5HT6; Log[Drug] -6
  β-arrestin2 recruitment response, replicate points of concentration-response curve: 0.6179
5HT6; Log[Drug] -6.52
  β-arrestin2 recruitment response, replicate points of concentration-response curve: 2.255 and 6.005 and -0.9593 and 0.5245 and -8.852 and -1.095 and 3.803 and 14.7296 and 1.5314
5HT6; Log[Drug] -7
  β-arrestin2 recruitment response, replicate points of concentration-response curve: 2.737 and -0.8021 and 0.3035 and -9.828 and -11.4107 and -3.313 and -1.206 and -3.514 and 45.5574
5HT6; Log[Drug] -7.52
  β-arrestin2 recruitment response, replicate points of concentration-response curve: 9.506 and 14.1402 and 17.6522 and -10.6377 and -5.208 and -2.549 and -1.295 and 2.071 and -1.605
5HT6; Log[Drug] -8
  β-arrestin2 recruitment response, replicate points of concentration-response curve: -0.645 and 1.165 and 0.2927 and -3.147 and 13.2695 and -12.1837 and -4.853 and 0.614 and -2.656
5HT6; Log[Drug] -8.52
  β-arrestin2 recruitment response, replicate points of concentration-response curve: -0.1626 and 4.9103 and -0.3035 and -9.285 and -10.3985 and -13.5456 and -5.689 and -5.904 and -4.713
5HT6; Log[Drug] -9
  β-arrestin2 recruitment response, replicate points of concentration-response curve: 5.962 and 3.36 and 0.775 and -2.264 and 6.672 and -11.4475 and -4.468 and 0.05179 and -2.649
5HT6; Log[Drug] -9.52
  β-arrestin2 recruitment response, replicate points of concentration-response curve: 0.7804 and -0.09756 and 1.653 and -9.57 and -13.2511 and -10.2512 and -0.9174 and -5.319 and -2.049
5HT6; Log[Drug] -10
  β-arrestin2 recruitment response, replicate points of concentration-response curve: -1.848 and 4.038 and 4.894 and -4.813 and -13.9689 and -2.9539 and 13.3388 and -5.371 and 2.353
5HT6; Log[Drug] -10.52
  β-arrestin2 recruitment response, replicate points of concentration-response curve: 1.577 and 1.859 and -0.3143 and -10.7113 and -10.242 and -8.8801 and -0.04439 and -4.439 and 2.981
5HT6; Log[Drug] -11
  β-arrestin2 recruitment response, replicate points of concentration-response curve: -1.149 and 2.054 and 0.1355 and -7.003 and -10.3432 and 9.598 and -3.27 and -3.4993 and -5.608
5HT6; Log[Drug] -11.52
  β-arrestin2 recruitment response, replicate points of concentration-response curve: -1.182 and 12.7148 and 3.068 and 1.2699 and -8.8985 and -8.135 and 6.251 and -5.941 and -5.608
